Key:
HEK293 noncancer cells = experiment: Intracellular CO release, fluorescent CO probe; format: cell-based, human; conditions: 20 μM, 30 min, fluorescent probe (Figure 4B)
Protocol: (§1) Figure 4 Intracellular detection of iron and carbon monoxide. A) Cellular uptake in PSN‐1 and HEK293 cells; cells were incubated with 50 μM of complexes for 24 h, and the cellular iron content was detected by GFAAS analysis. B) Intracellular CO levels were determined by using a fluorescent probe (BioTracker Carbon Monoxide Probe 1 Live Cell Dye®, Merck, Germany) after 30 min of treatment of PSN‐1 or HEK293 cells with 20 μM [2C]CF3SO3 and [2D]CF3SO3, or 20 μM CORM‐401 as positive control. ** P<0.01, * P<0.05.
(§2) Additional studies were conducted in order to elucidate the mode of action underlying the cell killing effect of the newly synthesized diiron complexes in cancer cells. In particular, based on the evidence of their tendency to slowly release CO in aqueous media (see section on solubility, partition coefficient, stability in aqueous media), we evaluated the ability of the most performant complexes [2C]CF3SO3 and [2D]CF3SO3 to release carbon monoxide inside PSN‐1 pancreatic cancer cells and HEK293 noncancer cells. A fluorometric test was conducted over a short time interval (30 min) by means of a CO sensing dye (Figure 4B). […] The relatively fast release of carbon monoxide within the cell might be associated to the presence of a consistent amount and variety of biological substrates, which can quicken the formation of CO substitution diiron products. As a matter of fact, it is well documented that [2E–F]CF3SO3 are susceptible to replacement of one terminal CO ligand by suitable C‐, P‐, S‐ and N‐donors to give adducts of general formula [Fe2Cp2(CO)(L)(μ‐CO){μ‐CNR(Me)}]^0/+.[[15b], [16a], [20]] Although the nature of L in the cell context is far from being clarified, it is reasonable to speculate that CO release is readily operative via such substitution pathway. However, an acceleration of the route leading to the extensive decomposition of the diiron scaffold (elimination of three COs per complex), as observed in aqueous media, might also contribute.
(§3) Intracellular CO release. PSN‐1 cell (1×10^4) were seeded in 96‐well plates. After 24 h, cells were treated with 20 μM of tested complexes or CORM‐401 (Merck) for […] at 37 °C and followed by 30 min incubation with a fluorescent probe BioTracker Carbon Monoxide Probe 1 Live Cell Dye® (Merck). The intracellular fluorescence, indicative of CO accumulation in cells, was quantified using a VICTOR X3 (PerkinElmer) plate reader.

[1] = tested on: PSN‐1 pancreatic cancer cells; experiment: Intracellular CO release, fluorescent CO probe; format: cell-based, human; conditions: PSN‐1 cells, 20 μM, 30 min, fluorescent probe (Figure 4B)
Protocol: as §1, §2, §3

PSN‐1 cells [2] = experiment: ROS production, CM-H2DCFDA fluorescence; format: cell-based, human; conditions: time-dependent (Figure 5A)
Text: (§4) Iron is a redox active metal that can generate ROS in cells via the Fenton reaction, thus inducing cellular damage and ultimately leading to cell death.[40] […] Based on this premises, we evaluated the effects induced by the diiron complexes on the mitochondria activity and the cellular redox environment. More precisely, we investigated the ROS production and the alteration of the mitochondrial membrane potential. […] The time‐dependent ROS basal production is probably associated to more than one phenomenon. First of all, the progressive disruption of the diiron structure leads to the extrusion of the Fe^I centres, which are expected to subsequently convert into Fe^III (in fact, slow precipitation of iron(III) oxides has been recognized from water solution, see above). […]
(§5) Figure 5 Effects induced by compounds [2C]CF3SO3 and [2D]CF3SO3 at the mitochondrial level. […] The fluorescence of DCF was measured at λ ex=485 nm and λ em=527 nm. […] Fluorescence was estimated at λ ex=490 nm and λ em=590 nm. […]
ROS production. The production of ROS was measured in PSN‐1 cells (10^4 per well) grown for 24 h in a 96‐well plate in RPMI medium without phenol red (Merck). […] Fluorescence increase was estimated by using λ ex=485 nm and λ em=527 nm in a VICTOR X3 (PerkinElmer) plate reader. […]

PSN‐1 cells [3] = experiment: Mitochondrial membrane potential; format: cell-based, human; conditions: 24 h (Figure 5B)
Text: as §4, with “above). Otherwise, based on previous voltammetric measurements on [2E–F]CF3SO3,[41] oxidation of iron enclosed in the complex is out of the range of biologically relevant potentials.” for “above).”
as §5
Mitochondrial membrane potential (ΔΨ). […] Fluorescence intensity was estimated using a VICTOR X3 (PerkinElmer, USA) plate reader at λ ex=490 and λ em=590 nm. […]

[4] = tested on: thioredoxin reductase (TrxR); conditions: cell-free experiment (data not shown)
Text: It has recently emerged that the redox stress induced by some iron complexes might also be attributed to their ability to inhibit the selenoenzyme thioredoxin reductase (TrxR).

[5] = tested on: TrxR in human pancreatic PSN‐1 cancer cells; experiment: TrxR activity in treated cells, NADPH-dependent reduction of DTNB; format: cell-based; conditions: PSN‐1 cells, 25 μM, 24 h
Protocol: Figure 6 Effects of compounds [2C]CF3SO3, [2D]CF3SO3 and Auranofin as positive control on TrxR in human pancreatic cells. […] Afterwards, cells were washed twice with PBS and lysed. TrxR activity was tested by measuring the NADPH‐dependent reduction of DTNB. * P<0.05.

| Substance | Intracellular CO levels (HEK293 noncancer cells) | Intracellular CO levels [1] | Cellular ROS production (PSN‐1 cells [2]) | Cells with depolarized mitochondria (mitochondrial membrane potential) (PSN‐1 cells [3]) | TrxR inhibition [4] | residual TrxR cellular activity [5] [%] |
| --- | --- | --- | --- | --- | --- | --- |
| [Fe2Cp2(CO)2(μ‐CO){μ‐CNMe(4‐C6H4OMe)}]CF3SO3 [[2D]CF3SO3] | lower levels of CO were detected | effective in significantly release CO | substantial increase in cellular ROS production | significant dose‐dependent increase of cells with depolarized mitochondria | completely ineffective | 39 |
| [Fe2Cp2(CO)2(μ‐CO){μ‐CNMe(C6H11)}]X [[2C]CF3SO3] | lower levels of CO were detected | effective in significantly release CO | substantial increase in cellular ROS production | significant dose‐dependent increase of cells with depolarized mitochondria | completely ineffective | 57 |

— paper PMC8362065, “Easily Available, Amphiphilic Diiron Cyclopentadienyl Complexes Exhibit in Vitro Anticancer Activity in 2D and 3D Human Cancer Cells through Redox Modulation Triggered by CO Release” (Chemistry (Weinheim an Der Bergstrasse, Germany), 2021)
